Data reported in patent US20120022078A1, “ARYL INDOLE DERIVATIVES” (MSD K.K., priority 2010, published 2012).

molecular target: T1, human QRFP receptor (GPR103) (Homo sapiens, UniProt Q96P65); assay: QRFP43 binding inhibition test ([125I]QRFP43, membranes of GPR103-expressing CHO-K1 cells); settings: membrane specimen from QRFP receptor (GPR103) expressing cells, 25° C., 1 hour, 20,000 cpm [125I]QRFP43; read-out: IC50 (50% inhibition concentration for the specific [125I] QRFP43 binding)
T1 construct: expressed in transfected cells; host or cells: NFAT β-Lactamase CHO-K1 host cells (Aurora); membrane specimen
T1 sequence (Q96P65 1-431): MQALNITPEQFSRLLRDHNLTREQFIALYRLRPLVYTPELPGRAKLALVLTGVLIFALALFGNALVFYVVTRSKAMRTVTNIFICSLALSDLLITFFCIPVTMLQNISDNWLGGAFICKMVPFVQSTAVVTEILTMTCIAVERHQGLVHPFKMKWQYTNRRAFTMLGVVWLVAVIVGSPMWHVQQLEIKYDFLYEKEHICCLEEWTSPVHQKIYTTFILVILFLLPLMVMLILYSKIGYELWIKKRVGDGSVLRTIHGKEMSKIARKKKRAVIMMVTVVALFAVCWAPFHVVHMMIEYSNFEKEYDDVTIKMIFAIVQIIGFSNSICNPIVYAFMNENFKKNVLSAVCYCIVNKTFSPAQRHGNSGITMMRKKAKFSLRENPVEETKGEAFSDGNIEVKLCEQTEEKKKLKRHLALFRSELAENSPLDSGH
Description: The cDNA sequence [Accession No. NM_198179] that codes for human QRFP receptor (GPR103) was cloned into an expression vector pEF1V5-HisB (Invitrogen). The expression vector so prepared was transfected into NFAT β-Lactamase CHO-K1 host cells (Aurora) to obtain QRFP receptor (GPR103) expressing cells, using the cationic lipid method [see Proceedings of the National Academy of Sciences of the United States of America, Vol. 84, p. 7413 (1987)].
The membrane specimen prepared from the QRFP receptor (GPR103) expressing cells was incubated at 25° C. for 1 hour with a test compound and 20,000 cpm [^125I ] QRFP43 (PerkinElmer, Inc.) in an assay buffer (50 mM Tris-HCl, 1 mM EDTA, and 0.1% BSA, pH 7.4), followed by filtration using a glass filter GF/C. After washing with a 50 mM Tris-HCl (containing 2 mM EDTA, 10 mM MgCl2, and 0.04% Tween-20) buffer at pH 7.4, the radioactivity on the glass filter was determined using a gamma counter. Non-specific binding was measured in the presence of 1 μM peptide QRFP43, and 50% inhibition concentration (IC50 value) of the test compound for the specific [^125I] QRFP43 binding was determined [see Endocrinology, Vol. 131, p. 2090 (1992)].

Point of comparison: CN1CCN(Cc2cnc(-c3cc4ccccc4n3C)s2)CC1 [Example 1, 1-Methyl-2-{5-[(4-methylpiperazin-1-yl)methyl]-1,3-thiazol-2-yl}-1H-indole], IC50 0.0498 µM. Against it:
- CN1CCN(Cc2cc(-c3cc4ccccc4n3C)ncc2F)CC1 [Example 2] — 1.5-fold lower, 0.0331 µM
- CN1CCN(Cc2ccc(F)c(-c3cc4ccccc4n3C)c2)CC1 [Example 3, 2-{2-Fluoro-5-[(4-methylpiperazin-1-yl)methyl]phenyl}-1-methyl-1H-indole] — within 1.5-fold, 0.0483 µM
- CN1CCN(Cc2cnc(F)c(-c3cc4ccccc4n3C)c2)CC1 [Example 4] — within 1.5-fold, 0.0525 µM
- CN1CCN(Cc2cncc(-c3cc4ccccc4n3C)c2)CC1 [Example 5, 1-Methyl-2-{5-[(4-methylpiperazin-1-yl)methyl]pyridin-3-yl}-1H-indole] — 2.2-fold higher, 0.111 µM
